In patent US4575560A, “Insecticidal diaminoguanidine hydrazone compounds” (American Cyanamid Company, priority 1985, dated 1986):
In brackets after ≈: the same amount, converted by molar mass. Read-outs that look alike come from different tables or passages of the source.

What was measured:
Southern Armyworm = test: Southern armyworm test, third-instar larvae on treated Sieva lima bean leaves; format: in vivo, Spodoptera eridania (Cramer)
Summary of the method: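 Sieva lima bean plants, primary leaves expanded to 1.91 cm, were dipped with agitation for three seconds in test material dissolved in 65% acetone, with further dilutions in acetone, then air-dried in a hood. A treated leaf was placed in a 9 cm petri dish on moist filter paper with 10 third-instar Spodoptera eridania larvae about 1 cm long. Dishes were covered and kept at 80° F. and 50% r.h. Mortality and feeding were assessed after two days.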

[1] = system: Tobacco Budworm 3rd Instar; test: Tobacco budworm secondary test, third-instar larvae on treated cotton cotyledons; format: in vivo, Heliothis virescens (Fabricus)
Tobacco Budworm = test: Tobacco budworm LC50 and FD50 (instar not stated); format: in vivo, Heliothis virescens (Fabricus)
Description: (§1) Test formulations and procedures used for evaluation are as follows:
FD50 = The concentration of insecticide required to reduce insect

[2] = system: Tobacco Budworm 1st Instar; test: Tobacco budworm initial test, treated eggs / newly hatched (1st instar) larvae on treated cotton leaves; format: in vivo, Heliothis virescens (Fabricus)
Description: as §1
A. 100 mg of the test material is weighed, placed in a funnel over a 113 g narrow-mouth bottle, rinsed into the bottle with a 35 mL scoop of acetone, followed by a 35 mL scoop of water and another 35 mL scoop of acetone to yield 1000 ppm in 65% acetone. If the material is not soluble, it is broken up with a glass rod and used as a suspension.
B. This stock solution ("A") is used to make 300 ppm solutions or suspensions by pipetting 30 mL of "A" into a bottle containing 70 mL of 50% acetone to yield 300 ppm. Further dilutions in 50% acetone are made as required.
C. Tests requiring 10 ppm acetone solutions: 1 mL of "A" is pipetted into 99 mL of acetone to yield 10 ppm. Additional dilutions are made using 50% acetone as required.
Tobacco Budworm--Heliothis virescens (Fabricus)
A cotton plant with two true leaves expanded is dipped for three seconds with agitation in 300 ppm solution. A 1.27 to 1.91 cm square of cheesecloth with about 50 to 100 budworm eggs 0-24 hours old is also dipped in the test solution and placed on a leaf of the cotton plant, all being placed in the hood to dry. The leaf with the treated budworm eggs is removed from the plant and placed in a 226 g Dixie cup with a wet 5 cm piece of dental wick and covered with a lid. The other leaf is placed in a similar cup with a wick and a piece of cheesecloth infested with 50-100 newly hatched larvae is added before covering the cup with a lid. After three days at 80° F., 50% relative humidity, observations of egg hatch are made, as well as kill of newly hatched larvae, any inhibition of feeding, or interference of any sort with normal development.

[3] = Spodoptera eridania; read-out: LC50 Southern Armyworm
[4] = Heliothis virescens; read-out: LC50 Tobacco Budworm
[5] = Heliothis virescens, read-out: LC50 Tobacco Budworm

SMILES | Mortality Rating Southern Armyworm (Southern Armyworm; 10 ppm, third-instar larvae) | Mortality Rating Southern Armyworm (Southern Armyworm; 100 ppm, third-instar larvae) | Mortality Rating Southern Armyworm (Southern Armyworm; 1000 ppm, third-instar larvae) | LC50 (Southern Armyworm; [3]) | LC50 Southern Armyworm (Southern Armyworm; southern armyworm, in vivo) | Mortality Rating Tobacco Budworm 3rd Instar ([1]; 10 ppm) | Mortality Rating Tobacco Budworm 3rd Instar ([1]; 100 ppm) | Mortality Rating Tobacco Budworm 3rd Instar ([1]; 1000 ppm) | LC50 (Tobacco Budworm; [4]) | Mortality Rating Tobacco Budworm 1st Instar ([2]; 10 ppm) | Mortality Rating Tobacco Budworm 1st Instar ([2]; 100 ppm) | Mortality Rating Tobacco Budworm 1st Instar ([2]; 300 ppm) | LC50 (Tobacco Budworm; [5]) | LC50 (Southern Armyworm; Spodoptera eridania, read-out: LC50 Southern Armyworm)
N=C(NN=Cc1ccc(C(F)(F)F)cc1)N(N=Cc1ccc(C(F)(F)F)cc1)C(=O)N1CCCC1 [CF3 / CF3 / (CH2)4] | 9 (100%) | 9 (100%) | 9 (100%) | 18 µg/mL (≈ 36.1 µM) | 14 ppm | 0 (No effect) | 4 (46-55%) | 9 (100%) | 1000 µg/mL (≈ 2010 µM) | – | – | – | – | –
CN(C)C(=O)N(N=Cc1ccc(C(F)(F)F)cc1)C(=N)NN=Cc1ccc(C(F)(F)F)cc1 [CF3 / CF3 / CH3 / CH3] | 8 (86-99%) | 9 (100%) | 9 (100%) | 15 µg/mL (≈ 31.8 µM) | – | 0 (No effect) | 9 (100%) | 9 (100%) | 96 µg/mL (≈ 203 µM) | 0 (No effect) | 6 (66-75%) | 8 (86-99%) | – | –
N=C(NN=Cc1ccc(C(F)(F)F)cc1)N(N=Cc1ccc(C(F)(F)F)cc1)C(=O)NCCCl [CF3 / CF3 / ClCH2 CH2 / H, allophanimidic acid, 4-(2-chloroethyl)-2-{[p-(trifluoromethyl)benzylidene]amino}-allophanimidicacid [p-(trifluoromethyl)benzylidene]hydrazide] | – | 9 (100%) | 9 (100%) | – | – | – | 4 (46-55%) | 9 (100%) | – | – | – | 0 (No effect) | 654 µg/mL (≈ 1290 µM) | –
CN(C)C(=O)N(N=Cc1ccc(OC(F)(F)F)cc1)C(=N)NN=Cc1ccc(OC(F)(F)F)cc1 [CF3 O / CF3 O / CH3 / CH3] | 9 (100%) | 9 (100%) | 9 (100%) | – | – | – | 3 (36-45%) | 9 (100%) | 77 µg/mL (≈ 153 µM) | – | – | – | – | –
CN(C)C(=O)N(N=Cc1ccc(OC(F)(F)C(Cl)Cl)cc1)C(=N)NN=Cc1ccc(OC(F)(F)C(Cl)Cl)cc1 [HCCl2 CF2 O / HCCl2 CF2 O / CH3 / CH3] | – | 9 (100%) | 9 (100%) | 26 µg/mL (≈ 41 µM) | – | – | 2 (26-35%) | 0 (No effect) | 140 µg/mL (≈ 221 µM) | – | – | – | – | –
CN(C)C(=O)N(N=Cc1ccc(OC(F)(F)C(F)F)cc1)C(=N)NN=Cc1ccc(OC(F)(F)C(F)F)cc1 [HCF2 CF2 O / HCF2 CF2 O / CH3 / CH3, 4,4-dimethyl-2-{[p-(1,1,2,2-tetrafluoroethoxy)benzylidene]amino}-allophanimidic acid [p-(1,1,2,2-tetrafluoroethoxy)benzylidene]hydrazide] | 0 (No effect) | 9 (100%) | 9 (100%) | – | – | – | 2 (26-35%) | 8 (86-99%) | – | – | 5 (56-65%) | 9 (100%) | 491 µg/mL (≈ 864 µM) | 7 µg/mL (≈ 12.3 µM)
CN(C)C(=O)N(N=Cc1ccc(OC(F)F)cc1)C(=N)NN=Cc1ccc(OC(F)F)cc1 [HCF2 O / HCF2 O / CH3 / CH3] | 0 (No effect) | 9 (100%) | 9 (100%) | 75 µg/mL (≈ 160 µM) | – | – | – | 0 (No effect) | – | – | – | 0 (No effect) | – | –
CNC(=O)N(N=Cc1ccc(OC(F)F)cc1)C(=N)NN=Cc1ccc(OC(F)F)cc1 [HCF2 O / HCF2 O / CH3 / H] | – | 0 (No effect) | 9 (100%) | – | – | – | – | 0 (No effect) | – | – | – | 7 (76-85%) | – | –
N=C(NN=Cc1ccc(OC(F)F)cc1)NN=Cc1ccc(OC(F)F)cc1 [HCF2 O / S] | 0 (No effect) | 8 (86-99%) | 9 (100%) | – | – | – | – | 0 (No effect) | – | – | – | 0 (No effect) | – | –
CN(C)C(=O)N(N=Cc1ccc(OC(F)(F)C(F)Cl)cc1)C(=N)NN=Cc1ccc(OC(F)(F)C(F)Cl)cc1 (stereo not drawn) [drawing 40 / drawing 41 / CH3 / CH3] | 9 (100%) | 9 (100%) | 9 (100%) | – | – | 0 (No effect) | 4 (46-55%) | 9 (100%) | 201 µg/mL (≈ 334 µM) | – | – | – | – | –
